According to patent US20220396565A1 (Hoffmann-La Roche Inc., priority 2020, published 2022):
Counter-ions that a name gives are not always drawn.

The compounds below were run on Acinetobacter baumannii ATCC17961 (assay: Antimicrobial susceptibility testing: 90% growth inhibitory concentration (IC90) determination, Iso-Sensitest broth). Details: 90% growth inhibitory concentration, Acinetobacter baumannii ATCC17961, Iso-Sensitest broth; read-out: ATCC 17961 IC90.
Type: cell-based
Procedure, shortened: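 Growth at OD600 was monitored every 20 min for 16 h at 35±2 °C, with bacteria inoculated at ~5×10^(5) CFU/ml into Iso-Sensitest medium. Compounds were tested as 10-point twofold dilutions (e.g. 10–0.02 μM final). The 90% inhibitory concentration comes from the log-phase growth.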

SMILES | IC90
COc1ccc(-c2cnc(C(=O)Nc3ccc(C(=O)N4CCN(C(=O)C5CCN(S(=O)(=O)CCN)CC5)CC4)c(Cl)c3)n2C)c(F)c1F [Example 242, N-[4-[4-[1-(2-aminoethylsulfonyl)pipe-ridine-4-carbonyl]piperazine-1-carbonyl]-3-chloro-phenyl]-5-(2,3-difluoro-4-methoxy-phenyl)-1-methyl-imidazole-2-carboxamide] | 90 nM

Same assay, conditions: Acinetobacter baumannii, ATCC17961, 90% growth inhibitory concentration, Acinetobacter baumannii ATCC17961, Iso-Sensitest broth; read-out: ATCC 17961 IC90

SMILES | IC90
COc1ccc(-c2cnc(C(=O)Nc3ccc(C(=O)N4CCN(C(=O)C[C@H]5CCCN5)CC4)c(Cl)c3)n2C)c(F)c1F [Example 152, N-[3-chloro-4-[4-[2-[(2R)-pyrrolidin-2-yl]acetyl]piperazine-1-carbonyl]phenyl]-5-(2,3-difluoro-4-methoxy-phenyl)-1-methyl-imidazole-2-carboxamide formate] | 50 nM
COc1ccc(-c2cnc(C(=O)Nc3ccc(C(=O)N4CCN(S(C)(=O)=O)CC4)c(Cl)c3)n2C)c(F)c1F [Example 240, N-[3-chloro-4-(4-methylsulfonylpiperazine-1-carbonyl)phenyl]-5-(2,3-difluoro-4-methoxy-phenyl)-1-methyl-imidazole-2-carboxamide] | 320 nM
Cn1c(-c2ccc(OCF)c(F)c2F)cnc1C(=O)Nc1ccc(C(=O)N2CCN(C(=O)C3CCNCC3)CC2)c(Cl)c1 [Example 143, N-[3-chloro-4-[4-(piperidine-4-carbonyl)piperazine-1-carbonyl]phenyl]-5-[2,3-difluoro-4-(fluoromethoxy)phenyl]-1-methyl-imidazole-2-carboxamide formate] | 30 nM
Cn1c(-c2ccc(OC(F)F)c(F)c2F)cnc1C(=O)Nc1ccc(C(=O)N2CCC(C(=O)N[C@H]3[C@@H]4CNC[C@@H]43)CC2)c(Cl)c1 [Example 61, N-[(1S,5R)-3-azabicyclo[3.1.0]hexan-6-yl]-1-[2-chloro-4-[[5-[4-(difluoromethoxy)-2,3-difluoro-phenyl]-1-methyl-imidazole-2-carbonyl]amino]benzoyl] piperidine-4-carboxamide formate] | 60 nM
COc1ccc(-c2cnc(C(=O)Nc3ccc(C(=O)N4CCC(NC(=O)CCOCCN)C4)c(Cl)c3)n2C)c(F)c1F (stereo not drawn) [Example 111, N-[4-[3-[3-(2-aminoethoxy)propanoylamino]pyrrolidine-1-carbonyl]-3-chloro-phenyl]-5-(2,3-difluoro-4-methoxy-phenyl)-1-methyl-imidazole-2-carboxamide formate] | 300 nM
Cn1c(-c2ccc(OC(F)F)c(F)c2)cnc1C(=O)Nc1ccc(C(=O)N2CCN(C(=O)C3CCNCC3)CC2)c(Cl)c1 [Example 144, N-[3-chloro-4-[4-(piperidine-4-carbonyl)piperazine-1-carbonyl]phenyl]-5-[4-(difluoromethoxy)-3-fluoro-phenyl]-1-methyl-imidazole-2-carboxamide formate] | 60 nM
Cn1c(-c2ccc(OCF)c(F)c2Cl)cnc1C(=O)Nc1ccc(C(=O)N2CCN(C(=O)C[C@@H]3CCNC3)CC2)c(Cl)c1 [Example 146, 5-[2-chloro-3-fluoro-4-(fluoromethoxy)phenyl]-N-[3-chloro-4-[4-[2-[(3S)-pyrrolidin-3-yl]acetyl]piperazine-1-carbonyl]phenyl]-1-methyl-imidazole-2-carboxamide formate] | 40 nM
Cn1c(-c2ccc(OCC#N)c(F)c2F)cnc1C(=O)Nc1ccc(C(=O)N2CCN(C(=O)CN3CC(C(=O)O)C3)CC2)c(Cl)c1 [Example 212, 1-(2-(4-(2-chloro-4-(5-(4-(cyanomethoxy)-2,3-difluorophenyl)-1-methyl-1H-imidazole-2-carboxamido)benzoyl)piperazin-1-yl)-2-oxoethyl)azetidine-3-carboxylic acid 2,2,2-trifluoroacetate] | 850 nM
COc1ccc(-c2cnc(C(=O)Nc3ccc(C(=O)N4CCN(C(=O)[C@@H]5CCNC[C@H]5O)CC4)c(Cl)c3)n2C)c(F)c1F [Example 230, N-[3-chloro-4-[4-[(3S,4R)-3-hydroxypiperidine-4-carbonyl]piperazine-1-carbonyl]phenyl]-5-(2,3-difluoro-4-methoxy-phenyl)-1-methyl-imidazole-2-carboxamide formate] | 100 nM
COc1ccc(-c2cnc(C(=O)Nc3ccc(C(=O)N4C[C@@H]5CN(C(=O)[C@@H]6CCNC6)C[C@@H]5C4)c(Cl)c3)n2C)c(F)c1F [Example 188, N-[4-[(3aR,6aS)-5-[(3R)-pyrrolidine-3-carbonyl]-1,3,3a,4,6,6a-hexahydropyrrolo[3,4-c]pyrrole-2-carbonyl]-3-chloro-phenyl]-5-(2,3-difluoro-4-methoxy-phenyl)-1-methyl-imidazole-2-carboxamide formate] | 140 nM
Cn1c(-c2ccc(OCC#N)c(F)c2F)cnc1C(=O)Nc1ccc(C(=O)N2CCC(C(=O)N3CC4(CNC4)C3)CC2)c(Cl)c1 [Example 85, N-(4-(4-(2,6-diazaspiro[3.3]heptane-2-carbonyl)piperidine-1-carbonyl)-3-chlorophenyl)-5-(4-(cyanomethoxy)-2,3-difluorophenyl)-1-methyl-1H-imidazole-2-carboxamide 2,2,2-trifluoroacetate] | 150 nM
Cn1c(-c2ccc(OCF)c(F)c2F)cnc1C(=O)Nc1ccc(C(=O)N2CCN(C(=O)[C@@H]3CCNC3)CC2)c(Cl)c1 [Example 155, N-[3-chloro-4-[4-[(3R)-pyrrolidine-3-carbonyl]piperazine-1-carbonyl]phenyl]-5-[2,3-difluoro-4-(fluoromethoxy)phenyl]-1-methyl-imidazole-2-carboxamide formate] | 40 nM
COc1ccc(-c2cnc(C(=O)Nc3ccc(C(=O)N4CC(NC(=O)C5CC(CN)C5)C4)c(Cl)c3)n2C)c(F)c1F (stereo not drawn) [Example 218, N-(4-(3-(3-(aminomethyl)cyclobutane-1-carboxamido)azetidine-1-carbonyl)-3-chlorophenyl)-5-(2,3-difluoro-4-methoxyphenyl)-1-methyl-1H-imidazole-2-carboxamide 2,2,2-trifluoroacetate] | 90 nM
Cn1c(-c2ccc(OCC#N)c(F)c2F)cnc1C(=O)Nc1ccc(C(=O)N2CCN(C(=O)N[C@H]3CNC[C@@H]3O)CC2)c(Cl)c1 [Example 282] | 60 nM
Cc1cc(NC(=O)c2ncc(-c3ccc(OCF)c(Cl)c3F)n2C)ccc1C(=O)N1CCN(C(=O)[C@@H]2C[C@@H](O)CN2)CC1 [Example 248, 5-[3-chloro-2-fluoro-4-(fluoromethoxy)phenyl]-N-[4-[4-[(2S,4R)-4-hydroxypyrrolidine-2-carbonyl]piperazine-1-carbonyl]-3-methyl-phenyl]-1-methyl-imidazole-2-carboxamide] | 50 nM
Cn1c(-c2ccc(OC(F)F)c(F)c2F)cnc1C(=O)Nc1ccc(C(=O)N2CCN(C(=O)C3CCN(CC(N)=O)CC3)CC2)c(Cl)c1 [Example 289] | 70 nM

Same assay, conditions: Acinetobacter baumannii, ATCC17961, read-out: ATCC 17961 IC90

SMILES | IC90
Cn1c(-c2ccc(OC(F)F)c(F)c2F)cnc1C(=O)Nc1ccc(C(=O)N2CCN(C(=O)CC3(O)CCNCC3)CC2)c(Cl)c1 [Example 223, N-(3-chloro-4-(4-(2-(4-hydroxypiperidin-4-yl)acetyl)piperazine-1-carbonyl)phenyl)-5-(4-(difluoromethoxy)-2,3-difluorophenyl)-1-methyl 1H-imidazole-2-carboxamide formate] | 50 nM
